Results taken from publication PMC11845477, “Exploring the principles behind antibiotics with limited resistance” (Nature Communications, 2025).
Where a SMILES comes first, the peptide text is derived from it. Bridges are numbered along the chain shown (N, C = ends). [ ]: non-standard residue; d: D form. The star is where a group is joined. X2 = CC[C@H](C)CCCCC(=O)*; Dab = NCC[C@H](N)C(=O)O

Tested on: P. aeruginosa ATCC BAA-3107 (SEN) and P. aeruginosa LESB58 (MDR)
Assay: Adaptive laboratory evolution (ALE), relative MIC of evolved lines
Type: cell-based, Pseudomonas aeruginosa
Excerpt: Using the same set of bacterial strains, we initiated adaptive laboratory evolution with the aim to maximize the level of antibiotic resistance in the populations achieved during a longer, but fixed time period.
An established protocol for adaptive laboratory evolution[46],[73] was followed to propagate populations with the highest resistance levels. Starting with an antibiotic concentration that caused approximately 50% growth inhibition, ten parallel populations for each antibiotic-ancestor strain combination were grown for 72 hours at 37 °C with continuous shaking (300 RPM). MHB broth medium was used unless stated otherwise. After each incubation, 20 µl of each culture was transferred to four new wells containing fresh medium with increasing antibiotic concentrations (0.5×, 1×, 1.5×, and 2.5× the previous concentration) in a chessboard layout to monitor potential cross-contamination. Growth was monitored by measuring OD600 using a Biotek Synergy 2 microplate reader, and only populations grown in the highest drug concentration with an OD600 > 0.2 were transferred further.
A robotic liquid handling system was used to automatically prepare a 11 to 16-step serial dilution in 384-well microtiter plates (Greiner). A final concentration of 5 × 10^5 bacterial cells per mL were inoculated into each well containing 60 µL MHB medium. Bacterial cultures were incubated at 37 °C with continuous shaking (Infors shaker, 900 rpm with 3 mm throw) for 18 hours (2 replicates from each). Cell growth was monitored by measuring the optical density (OD600 values, using Biotek Synergy microplate reader). MIC was defined as the antibiotic concentration of complete growth inhibition (i.e., OD600 < 0.05). Relative MIC was calculated as follows:1 relativeMIC=MICevolved/MICancestor […]
Supplementary Figure 4. Resistance levels following adaptive laboratory evolution across bacterial strains. The level of resistance was measured as the fold change in relative MIC between evolved and ancestral strains after ~60 days of adaptive laboratory evolution. Data are grouped by bacterial strain (A. baumannii (AB), E. coli (EC), K. pneumoniae (KP), and P. aeruginosa (PA)) and categorized as either multidrug-resistant (MDR) or sensitive (SEN). Each data point represents a laboratory evolved line, and boxplots show the median, first and third quartiles, with whiskers indicating the 5th and 95th percentiles.
Statistical analysis was performed using two-sided Dunn’s post-hoc test with Benjamini-Hochberg correction for multiple comparisons (****/ ***/ **/ * indicates p < 0.0001/ 0.001/ 0.01/ 0.05). For detailed information on antibiotic and bacterial species, see Supplementary Table 1. For mode of action groups, refer to Table 1. Source data are provided as a Source Data file.

Compound | MIC of evolved line (PA-SEN (ATCC BAA 3107), evolved line 2) | MIC of evolved line (PA-SEN (ATCC BAA 3107), evolved line 3) | MIC of evolved line (PA-SEN (ATCC BAA 3107), evolved line 4) | MIC of evolved line (PA-SEN (ATCC BAA 3107), evolved line 6) | MIC of evolved line (PA-SEN (ATCC BAA 3107), evolved line 7) | MIC of evolved line (PA-SEN (ATCC BAA 3107), evolved line 8) | MIC of evolved line (PA-SEN (ATCC BAA 3107), evolved line 9) | MIC of evolved line (PA-SEN (ATCC BAA 3107), evolved line 10) | MIC of evolved line (PA-SEN ATCC BAA 3107, evolved line 1) | Relative MIC (log10) (PA-MDR (Pseudomonas aeruginosa LESB 58), evolved line 1) | Relative MIC (log10) (PA-MDR (Pseudomonas aeruginosa LESB 58), evolved line 6) | Relative MIC (log10) (PA-MDR, Pseudomonas aeruginosa LESB 58, evolved line 9) | Relative MIC (log10) (PA-MDR, Pseudomonas aeruginosa LESB 58, evolved line 2) | Relative MIC (log10) (PA-MDR, Pseudomonas aeruginosa LESB 58, evolved line 7) | Relative MIC (log10) (PA-SEN, Pseudomonas aeruginosa ATCC BAA 3107, evolved line 1) | Relative MIC (log10) (PA-SEN, Pseudomonas aeruginosa ATCC BAA 3107, evolved line 4) | Relative MIC (log10) (PA-SEN, Pseudomonas aeruginosa ATCC BAA 3107, evolved line 5) | Relative MIC (log10) (PA-SEN, Pseudomonas aeruginosa ATCC BAA 3107, evolved line 7) | Relative MIC (log10) (PA-SEN, Pseudomonas aeruginosa ATCC BAA 3107, evolved line 8)
COc1c(N2C[C@@H]3CCCN[C@@H]3C2)c(F)cc2c(=O)c(C(=O)O)cn(C3CC3)c12 [Moxifloxacin] | 256 µg/mL | 512 µg/mL | 128 µg/mL | 512 µg/mL | 256 µg/mL | 512 µg/mL | 256 µg/mL | 128 µg/mL | 512 µg/mL |  |  |  |  |  |  |  |  |  | 
CC[C@H](C)CCCCC(=O)N[C@@H](CCN)C(=O)N[C@H](C(=O)N[C@@H](CCN)C(=O)N[C@H]1CCNC(=O)[C@H]([C@@H](C)O)NC(=O)[C@H](CCN)NC(=O)[C@H](CCN)NC(=O)[C@H](CC(C)C)NC(=O)[C@@H](Cc2ccccc2)NC(=O)[C@H](CCN)NC1=O)[C@@H](C)O [Polymyxin B] (X2-[Dab]T[Dab][Dab][Dab][dF]L[Dab][Dab]T; lactam 4-C (inferred); N-terminus assumed) |  |  |  |  |  |  |  |  |  | 1.505 log10 | 1.806 log10 | 1.806 log10 | 2.107 log10 | 1.204 log10 | 1.505 log10 | 1.505 log10 | 1.505 log10 | 1.204 log10 | 1.204 log10
